Reference: US10221160B2, “Metalloenzyme inhibitor compounds” (Mycovia Pharmaceuticals, Inc., priority 2012, dated 2019)
≈ marks a conversion by molar mass, not a printed value.

What follows are compounds tested on C. albicans (assay: Minimum Inhibitory Concentration (MIC), CLSI M27-A2). Details: Candida albicans, 48 h, about 50% growth reduction, approximately 48 h at 35 °C, read-out: Candida MIC.
Type: cell-based
Method: A. Minimum Inhibitory Concentration (MIC) Compounds were assessed for their ability to inhibit the growth of common strains of fungus, C. albicans using a standardized procedure (CLSI M27-A2). Stock solutions of the test compounds and standards were prepared in DMSO at 1,600 μg/mL (C. albicans). Eleven, serial, one-half dilutions of compounds were prepared in 96-well plates in RPMI+MOPS. The assay concentration ranges were 8-0.001 μg/mL (C. albicans). Cell suspensions of C. albicans were prepared and added to each well at concentrations of approximately 3.7×10^3 colony-forming-units per milliliter (cfu/mL). All testing was in duplicate. The inoculated plates were incubated for approximately 48 h at 35±1° C. At the completion of incubation the wells of each plate were evaluated visually for the presence of fungal growth. […] For QC purposes C. krusei isolate ATCC 6258 (4.0×10^3 cfu/mL) was included in the VOR assay.

MIC [µg/mL]	SMILES
≤ 0.016	OC(Cn1cnnn1)(c1ccc(F)cc1F)C(F)(F)c1ccc(-c2ccc(C(F)(F)F)cc2)cn1 (centres unmarked) [Example 2, 2-(2,4-Difluorophenyl)-1,1-difluoro-3-(1H-tetrazol-1-yl)-1-(5-(4-(trifluoromethyl)phenyl)pyridin-2-yl) propan-2-ol]
0.5 (≈ 1.63 µM)	OC(Cn1cncn1)(Cn1cncn1)c1ccc(F)cc1F [Fluconazole, reference compound]
0.016 (≈ 0.0458 µM)	C[C@@H](c1ncncc1F)[C@](O)(Cn1cncn1)c1ccc(F)cc1F [Voriconazole, reference compound]

Same assay, conditions: Candida albicans, rating scale, read-out: Candida MIC Rating

MIC [µg/mL]	SMILES
< 0.5	OC(Cn1cnnn1)(c1ccc(F)cc1F)C(F)(F)c1ccc(-c2ccc(C(F)(F)F)cc2)cn1 (centres unmarked) [Example 2, 2-(2,4-Difluorophenyl)-1,1-difluoro-3-(1H-tetrazol-1-yl)-1-(5-(4-(trifluoromethyl)phenyl)pyridin-2-yl) propan-2-ol]
< 0.5	OC(Cn1cnnn1)(c1ccc(F)cc1F)C(F)(F)c1ccc(-c2ccc(OC(F)F)cc2)cn1 (centres unmarked) [Example 38, 1-(5-(4-(Difluoromethoxy)phenyl)pyridin-2-yl)-2-(2,4-difluorophenyl)-1,1-difluoro-3-(1H-tetrazol-1-yl)propan-2-ol]
< 0.5	OC(Cn1cnnn1)(c1ccc(F)cc1F)C(F)(F)c1ccc(-c2ccc(SC(F)F)cc2)cn1 (centres unmarked) [Example 40]
< 0.5	OC(Cn1cnnn1)(c1ccc(F)cc1F)C(F)(F)c1ccc(-c2ccc(CC(F)(F)F)cc2)cn1 (centres unmarked) [Example 41, 2-(2,4-Difluorophenyl)-1,1-difluoro-3-(1H-tetrazol-1-yl)-1-(5-(4-(2,2,2-trifluoroethyl)phenyl)pyridin-2-yl)propan-2-ol]
< 0.5	CNC(=O)c1ccc(-c2ccc(C(F)(F)C(O)(Cn3cnnn3)c3ccc(F)cc3F)nc2)cc1 (centres unmarked) [Example 42, 4-(6-(2-(2,4-Difluorophenyl)-1,1-difluoro-2-hydroxy-3-(1H-tetrazol-1-yl)propyl)pyridin-3-yl)-N-methylbenzamide]
< 0.5	CCOC(=O)C(F)(F)Oc1ccc(-c2ccc(C(F)(F)C(O)(Cn3cnnn3)c3ccc(F)cc3F)nc2)cc1 (centres unmarked) [Example 43, Ethyl 2-(4-(6-(2-(2,4-difluorophenyl)-1,1-difluoro-2-hydroxy-3-(1H-tetrazol-1-yl)propyl)pyridin-3-yl)phenoxy)-2,2-difluoroacetate]
< 0.5	OC(Cn1cnnn1)(c1ccc(F)cc1F)C(F)(F)c1ccc(-c2ccc(OCCC(F)(F)F)cc2)cn1 (centres unmarked) [Example 44, 2-(2,4-Difluorophenyl)-1,1-difluoro-3-(1H-tetrazol-1-yl)-1-(5-(4-(3,3,3-trifluoropropoxy)phenyl)pyridin-2-yl)propan-2-ol]
< 0.5	OC(Cn1cnnn1)(c1ccc(F)cc1F)C(F)(F)c1ccc(-c2ccc(SCC(F)(F)F)cc2)cn1 (centres unmarked) [Example 45, 2-(2,4-Difluorophenyl)-1,1-difluoro-3-(1H-tetrazol-1-yl)-1-(5-(4-((2,2,2-trifluoroethyl)thio)phenyl)pyridin-2-yl)propan-2-ol]
0.5 to 1.5 (≈ 0.982 to 2.94 µM)	CC(F)(c1ccc(-c2ccc(OC(F)(F)F)cc2)cn1)C(O)(Cn1cnnn1)c1ccc(F)cc1F (centres unmarked) [Example 46, 2-(2,4-Difluorophenyl)-3-fluoro-1-(1H-tetrazol-1-yl)-3-(5-(4-(trifluoromethoxy)phenyl)-pyridin-2-yl)butan-2-ol]
1.5 to 4 (≈ 3.38 to 9.02 µM)	CC(F)(c1ccc(-c2ccc(F)cc2)cn1)C(O)(Cn1ncnn1)c1ccc(F)cc1F (centres unmarked) [Example 48, 2-(2,4-Difluorophenyl)-3-fluoro-3-(5-(4-fluorophenyl)pyridin-2-yl)-1-(2H-tetrazol-2-yl)butan-2-ol]

Same assay, conditions: rating scale

Candida MIC Rating	SMILES
A (≤0.5)	CC(F)(c1ccc(-c2ccc(F)cc2)cn1)C(O)(Cn1cnnn1)c1ccc(F)cc1F (centres unmarked) [Example 51, 2-(2,4-Difluorophenyl)-3-fluoro-3-(5-(4-fluorophenyl)pyridin-2-yl)-1-(1H-tetrazol-1-yl)butan-2-ol]
C (>1.5-4)	CC(F)(c1ccc(-c2ccc(C(F)(F)F)cc2)cn1)C(O)(Cn1cnnn1)c1ccc(F)cc1F (centres unmarked) [Example 52, 2-(2,4-Difluorophenyl)-3-fluoro-1-(1H-tetrazol-1-yl)-3-(5-(4-(trifluoromethyl)phenyl)pyridin-2-yl)butan-2-ol]
B (>0.5-1.5)	CC(F)(c1ccc(-c2ccc(C(F)(F)F)cc2)cn1)C(O)(Cn1cnnn1)c1ccc(F)cc1F (centres unmarked) [Example 53, 2-(2,4-Difluorophenyl)-3-fluoro-1-(1H-tetrazol-1-yl)-3-(5-(4-(trifluoromethyl)phenyl)pyridin-2-yl)butan-2-ol]
C (>1.5-4)	CC(F)(c1ccc(-c2ccc(Cl)cc2)cn1)C(O)(Cn1cnnn1)c1ccc(F)cc1F (centres unmarked) [Example 54, 3-(5-(4-Chlorophenyl)pyridin-2-yl)-2-(2,4-difluorophenyl)-3-fluoro-1-(1H-tetrazol-1-yl)butan-2-ol]
A (≤0.5)	CC(F)(c1ccc(-c2ccc(Cl)cc2)cn1)C(O)(Cn1cnnn1)c1ccc(F)cc1F (centres unmarked) [Example 55, 3-(5-(4-Chlorophenyl)pyridin-2-yl)-2-(2,4-difluorophenyl)-3-fluoro-1-(1H-tetrazol-1-yl)butan-2-ol]
C (>1.5-4)	CC(F)(c1ccc(-c2ccc(OCC(F)(F)F)cc2)cn1)C(O)(Cn1cnnn1)c1ccc(F)cc1F (centres unmarked) [Example 56, 2-(2,4-Difluorophenyl)-3-fluoro-1-(1H-tetrazol-1-yl)-3-(5-(4-(2,2,2-trifluoroethoxy)phenyl)pyridin-2-yl)butan-2-ol]
A (≤0.5)	CC(F)(c1ccc(-c2ccc(OCC(F)(F)F)cc2)cn1)C(O)(Cn1cnnn1)c1ccc(F)cc1F (centres unmarked) [Example 57, 2-(2,4-Difluorophenyl)-3-fluoro-1-(1H-tetrazol-1-yl)-3-(5-(4-(2,2,2-trifluoroethoxy)phenyl)pyridin-2-yl)butan-2-ol]

The next lines start with the compound.

SMILES	Candida MIC Rating
OC(Cn1cnnn1)(c1ccc(F)cc1F)C(F)(F)c1ccc(-c2ccc(OCC(F)(F)F)cc2)cn1 (centres unmarked) [Example 39, 2-(2,4-Difluorophenyl)-1,1-difluoro-3-(1H-tetrazol-1-yl)-1-(5-(4-(2,2,2-trifluoroethoxy)phenyl)pyridin-2-yl)propan-2-ol]	C (>1.5-4)
CC(F)(c1ccc(-c2ccc(OC(F)(F)F)cc2)cn1)C(O)(Cn1cnnn1)c1ccc(F)cc1F (centres unmarked) [Example 47, 2-(2,4-Difluorophenyl)-3-fluoro-1-(1H-tetrazol-1-yl)-3-(5-(4-(trifluoromethoxy)phenyl)-pyridin-2-yl)butan-2-ol]	A (≤0.5)

These compounds were tested against CYP3A4 (Homo sapiens (Human), UniProt P08684) (assay: Inhibition of liver cytochrome P450 enzymes (pooled human liver microsomes)). Details: not given.
Type: in vitro ADME
Method: A. […] Solutions of each test compound were separately prepared at concentrations of 20000, 6000, 2000, 600, 200, and 60 μM by serial dilution with DMSO:MeCN (50:50 v/v). The individual test compound solutions were then diluted 20-fold with DMSO:MeCN:deionized water (5:5:180 v/v/v) to concentrations of 1000, 300, 100, 30, 10, and 3 μM. […] The mixed inhibitor solutions were then diluted 20-fold with DMSO:MeCN:deionized water (5:5:180 v/v/v) to concentrations of 300, 100, 30, 10, 3, 1, 0.3, and 0.1 μM. The percent of organic solvent attributable to the test compound or inhibitor mixture in the final reaction mixture was 2% v/v. Pooled human liver microsome suspension (20 mg/mL) was diluted with phosphate buffer to obtain a 5 mg/mL suspension. A solution of NADPH was prepared in phosphate buffer at a concentration of 5 mM. Separate stock solutions of each substrate were prepared in DMSO:MeCN (50:50 v/v), mixed, and diluted in phosphate buffer to obtain a single solution containing each substrate at five times its experimentally determined Km concentration. […] A portion of the supernatant was analyzed by gradient reverse-phase HPLC with detection by electrospray ionization triple quadrupole mass spectrometry in the positive ion mode. Data was fitted to sigmoid dose-response curves and the inhibitory potency of each test compound was determined as its IC50 value.

CYP3A4, sequence (P08684 whole entry): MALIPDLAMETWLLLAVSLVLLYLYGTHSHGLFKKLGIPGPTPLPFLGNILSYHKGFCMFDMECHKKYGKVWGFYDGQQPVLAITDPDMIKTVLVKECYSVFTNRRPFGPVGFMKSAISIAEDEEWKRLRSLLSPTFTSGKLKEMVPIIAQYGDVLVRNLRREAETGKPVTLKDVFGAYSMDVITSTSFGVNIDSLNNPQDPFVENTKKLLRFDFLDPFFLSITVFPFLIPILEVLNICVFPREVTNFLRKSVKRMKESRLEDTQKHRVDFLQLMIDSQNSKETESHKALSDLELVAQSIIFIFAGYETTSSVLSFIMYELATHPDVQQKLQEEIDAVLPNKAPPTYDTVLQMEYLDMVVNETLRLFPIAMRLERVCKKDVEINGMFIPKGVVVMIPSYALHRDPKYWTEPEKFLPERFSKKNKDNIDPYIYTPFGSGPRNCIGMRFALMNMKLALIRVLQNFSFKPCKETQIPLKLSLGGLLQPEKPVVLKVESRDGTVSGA

IC50 [µM]	SMILES
> 60	OC(Cn1cnnn1)(c1ccc(F)cc1F)C(F)(F)c1ccc(-c2ccc(C(F)(F)F)cc2)cn1 (centres unmarked) [Example 2, 2-(2,4-Difluorophenyl)-1,1-difluoro-3-(1H-tetrazol-1-yl)-1-(5-(4-(trifluoromethyl)phenyl)pyridin-2-yl) propan-2-ol]
